According to ChEMBL document CHEMBL1201862, “PubChem BioAssay data set” (2004):
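Values below derive from 48-hour exposures of cells grown in 96-well plates, with endpoints linearly interpolated between the two concentrations bracketing the appropriate inhibition level. GI50 is the concentration that inhibits growth by half.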 The source made the active and inactive calls. Cut-off read from the data, not from the text of the source: active = GI50 up to about 1.1 µM and inactive = higher.

Experiments:
Experiment in all cases: DTP human tumour cell line panel, 48 h
[1] = tested on: A498
[2] = tested on: SN12C
[3] = tested on: A549
[4] = tested on: HCC 2998
[5] = tested on: UACC-257
[6] = tested on: M14
[7] = tested on: EKVX
[8] = tested on: HCT-116
[9] = tested on: SK-OV-3
[10] = tested on: U-251
[11] = tested on: HOP-62
[12] = tested on: HOP-92
[13] = tested on: LOX IMVI
[14] = tested on: MDA-MB-435
[15] = tested on: HCT-15
[16] = tested on: NCI-H522
[17] = tested on: SNB-19
[18] = tested on: SR
[19] = tested on: OVCAR-8
[20] = tested on: HT-29
[21] = tested on: SK-MEL-28
[22] = tested on: RXF 393
[23] = tested on: ACHN
[24] = tested on: HL-60
[25] = tested on: TK-10
[26] = tested on: 786-0
[27] = tested on: OVCAR-3
[28] = tested on: BT-549
[29] = tested on: COLO 205
[30] = tested on: NCI-H226
[31] = tested on: K562
[32] = tested on: NCI-H460
[33] = tested on: CCRF-CEM
[34] = tested on: SK-MEL-5
[35] = tested on: SF-539
[36] = tested on: SF-268
[37] = tested on: Malme-3M
[38] = tested on: MDA-N
[39] = tested on: SF-295
[40] = tested on: Hs-578T
[41] = tested on: SNB-75
[42] = tested on: OVCAR-4
[43] = tested on: SK-MEL-2
[44] = tested on: MDA-MB-231
[45] = tested on: MCF7
[46] = tested on: SW-620
[47] = tested on: UACC-62
[48] = tested on: NCI-H23
[49] = tested on: OVCAR-5
[50] = tested on: T47D
[51] = tested on: NCI/ADR-RES
[52] = tested on: UO-31
[53] = tested on: IGROV-1
[54] = tested on: MOLT-4
[55] = tested on: DU-145
[56] = tested on: KM12
[57] = tested on: PC-3
[58] = tested on: RPMI-8226
[59] = tested on: CAKI-1

Measured: GI50

CCCNC(C#N)c1ccc(OCCCCCCCCCCOc2ccc(C(C#N)NCCC)cc2)cc1 (stereo not given)
47.3 µM: [15]
inactive: [1] 23.1 µM | [2] 68.9 µM | [3] 47 µM | [4] > 100 µM | [5] 48.5 µM | [6] 40.4 µM | [7] 60.5 µM | [8] 31.9 µM | [9] 64 µM | [10] 20.9 µM | [11] 42.8 µM | [12] 32.4 µM | [13] 14.8 µM | [14] 46.3 µM | [16] 72.6 µM | [17] 33.2 µM | [18] 25.6 µM | [19] 30.9 µM | [20] 51.1 µM | [21] > 100 µM | [22] 23.9 µM | [23] 83.9 µM | [24] 17.3 µM | [25] 29.2 µM | [26] > 100 µM | [27] 30.5 µM | [28] 75 µM | [29] > 100 µM | [30] 30.8 µM | [31] 23.6 µM | [32] 50.5 µM | [33] 15.3 µM | [34] 33.3 µM | [35] 55.2 µM | [36] 61.8 µM | [37] 64 µM | [38] 29.4 µM | [39] 31.3 µM | [40] 37.7 µM | [41] 32.8 µM | [42] 34.5 µM | [43] 38.5 µM | [44] > 100 µM | [45] 35.2 µM | [46] 41.3 µM | [47] 61.2 µM | [48] 51.3 µM | [49] 69.8 µM | [50] 64 µM | [51] 56.8 µM | [52] 51.8 µM | [53] 54.6 µM | [54] 17.1 µM | [55] 49 µM | [56] 64.7 µM | [57] 30.8 µM

CNC(=O)C(C)NC(=O)C(Cc1ccccc1)NC(=O)OC(C)(C)C (stereo not given)
> 100 µM: [15]
inactive: [1] > 100 µM | [2] > 100 µM | [3] > 100 µM | [4] > 100 µM | [5] > 100 µM | [6] > 100 µM | [7] > 100 µM | [8] > 100 µM | [9] > 100 µM | [10] > 100 µM | [11] > 100 µM | [12] > 100 µM | [13] > 100 µM | [14] > 100 µM | [16] 51.2 µM | [17] > 100 µM | [18] > 100 µM | [19] > 100 µM | [20] > 100 µM | [21] > 100 µM | [58] > 100 µM | [22] > 100 µM | [23] > 100 µM | [24] > 100 µM | [25] > 100 µM | [26] > 100 µM | [27] > 100 µM | [28] > 100 µM | [29] > 100 µM | [30] > 100 µM | [31] > 100 µM | [32] > 100 µM | [59] > 100 µM | [33] > 100 µM | [34] > 100 µM | [35] > 100 µM | [36] > 100 µM | [37] > 100 µM | [38] > 100 µM | [39] > 100 µM | [40] > 100 µM | [41] > 100 µM | [43] > 100 µM | [44] > 100 µM | [45] > 100 µM | [46] > 100 µM | [47] > 100 µM | [48] > 100 µM | [49] > 100 µM | [50] > 100 µM | [51] > 100 µM | [52] > 100 µM | [53] > 100 µM | [54] > 100 µM | [55] > 100 µM | [56] > 100 µM | [57] > 100 µM
